Measured values as given in PubChem BioAssay AID248 (DTP/NCI, 2004).
Where “and” joins values, the source holds several entries; their conditions need not be identical. Equal entries are not always repeated. Toxic doses and inconclusive results are not listed. No stated cut-off is given here; in the data, active means T/C of 150% or more; inactive means T/C below 125%.

System: L1210 leukemia ip in BDF1 mice, survival T/C
Experiment: NCI In Vivo Anticancer Drug Screen. Data for tumor model L1210 Leukemia (intraperitoneal) in B6D2F1 (BDF1) mice
Conditions: endpoint: mean survival time, higher = longer survival
Outline: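 Transplanted-tumor mice were given test agent; controls received vehicle only. Survival readings from the two groups were divided (treated over control).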

[1] = dose: 100.0 mg/kg/injection, schedule: Q04DX003 (ip), vehicle: Klucel (hydroxypropylcellulose) (HPC)
[2] = dose: 200.0 mg/kg/injection, schedule: Q04DX003 (ip), vehicle: Klucel (hydroxypropylcellulose) (HPC)
[3] = dose: 50.0 mg/kg/injection, schedule: Q01DX009 (ip), vehicle: Klucel (hydroxypropylcellulose) (HPC)
[4] = dose: 100.0 mg/kg/injection, schedule: Q04DX003 (ip), vehicle: saline with Tween-80
[5] = dose: 400.0 mg/kg/injection, schedule: Q04DX003 (ip), vehicle: saline with Tween-80
[6] = dose: 100.0 mg/kg/injection, schedule: Q01DX009 (ip), vehicle: saline with Tween-80
[7] = dose: 200.0 mg/kg/injection, schedule: Q01DX009 (ip), vehicle: saline with Tween-80
[8] = dose: 400.0 mg/kg/injection, schedule: Q01DX009 (ip), vehicle: saline with Tween-80
[9] = dose: 100.0 mg/kg/injection, schedule: Q01DX001 (ip), vehicle: saline
[10] = dose: 200.0 mg/kg/injection, schedule: Q01DX001 (ip), vehicle: saline
[11] = dose: 400.0 mg/kg/injection, schedule: Q01DX001 (ip), vehicle: saline

Measured: T/C

CC(=O)C12OC1(C)CC1C3CC=C4CC(O)CCC4(C)C3CCC12C (configuration not stated)
inactive: dose: 100.0 mg/kg/injection, schedule: Q01DX009 (sc), vehicle: steriod suspending solution 100 % of control | dose: 100.0 mg/kg/injection, schedule: Q04DX003 (sc), vehicle: steriod suspending solution 108 % of control | dose: 200.0 mg/kg/injection, schedule: Q01DX009 (sc), vehicle: steriod suspending solution 109 % of control | dose: 200.0 mg/kg/injection, schedule: Q04DX003 (sc), vehicle: steriod suspending solution 122 % of control | dose: 400.0 mg/kg/injection, schedule: Q01DX009 (sc), vehicle: steriod suspending solution 98 % of control | dose: 400.0 mg/kg/injection, schedule: Q04DX003 (sc), vehicle: steriod suspending solution 103 % of control

CCCCCCCCCCCCOc1ccccc1C=O
inactive: [1] 101 % of control | [2] 106 % of control | dose: 400.0 mg/kg/injection, schedule: Q04DX003 (ip), vehicle: Klucel (hydroxypropylcellulose) (HPC) 96 % of control

CC(C)C1=CC23CCC4C(C)(C(=O)O)CCCC4(C)C2CC1C1(Cl)C(Cl)=C(Cl)C(Cl)(Cl)C31Cl (configuration not stated)
inactive: dose: 75.0 mg/kg/injection, schedule: Q01DX001 (ip), vehicle: other 89 % of control | dose: 150.0 mg/kg/injection, schedule: Q01DX001 (ip), vehicle: other 89 % of control

c1cc2cc3c(cc2cc1CC1NCCc2cc4c(cc21)OCO4)OCO3 (configuration not stated)
inactive: [3] 88 % of control | dose: 100.0 mg/kg/injection, schedule: Q01DX009 (ip), vehicle: Klucel (hydroxypropylcellulose) (HPC) 101 % of control | [1] 100 % of control | [2] 94 % of control

OC1CC2CCC(C1)S2 (configuration not stated)
inactive: dose: 50.0 mg/kg/injection, schedule: Q01DX001 (ip), vehicle: Klucel (hydroxypropylcellulose) (HPC) 100 % of control | dose: 100.0 mg/kg/injection, schedule: Q01DX001 (ip), vehicle: Klucel (hydroxypropylcellulose) (HPC) 105 % of control | dose: 200.0 mg/kg/injection, schedule: Q01DX001 (ip), vehicle: Klucel (hydroxypropylcellulose) (HPC) 96 % of control

[O-][n+]1c2ccccc2c(Oc2ccccc2)c2ccc3ccccc3c21
inactive: [4] 95 % of control | [5] 92 % of control

CC(=O)N1C(=O)N(Cl)C(=O)C1(c1ccc(Cl)cc1)c1ccc(Cl)cc1
inactive: [6] 108 % of control | [4] 92 % of control | [7] 104 % of control | dose: 200.0 mg/kg/injection, schedule: Q04DX003 (ip), vehicle: saline with Tween-80 100 % of control | [8] 102 % of control | [5] 98 % of control

CCOC(=O)C[n+]1ccccc1Br
inactive: dose: 50.0 mg/kg/injection, schedule: Q01DX015 (ip), vehicle: water 90 % of control | dose: 100.0 mg/kg/injection, schedule: Q01DX015 (ip), vehicle: water 100 % of control

COC1(OC)C2CCC1C(O)C2 (configuration not stated)
inactive: dose: 100.0 mg/kg/injection, schedule: Q01DX009 (ip), vehicle: saline 104 % of control | dose: 200.0 mg/kg/injection, schedule: Q01DX009 (ip), vehicle: saline 105 % of control

O=c1c2ccc(Cl)cc2[nH]c(=S)n1-c1ccc(Cl)cc1
inactive: [6] 89 % of control | [7] 89 % of control | [8] 87 % of control

O=c1c(-c2ccccc2)c(-c2ccccc2)n2n1C1CCC2C1 (configuration not stated)
inactive: [9] 95 % of control | [10] 89 % of control | [11] 110 % of control

CC1CC[N-]CC1.CC1CC[N-]CC1.CS(C)=O.[Cl][Rh]([Cl])[Cl]
inactive: dose: 3.0 mg/kg/injection, schedule: Q01DX009 (ip), vehicle: saline with Tween-80 98 % of control | dose: 6.0 mg/kg/injection, schedule: Q01DX009 (ip), vehicle: saline with Tween-80 106 % of control | dose: 12.0 mg/kg/injection, schedule: Q01DX009 (ip), vehicle: saline with Tween-80 109 % of control

O=C(Cc1ccccc1)NCc1ccco1
inactive: dose: 25.0 mg/kg/injection, schedule: Q01DX009 (ip), vehicle: Klucel (hydroxypropylcellulose) (HPC) 100 % of control | [3] 94 % of control | dose: 100.0 mg/kg/injection, schedule: Q04DX002 (ip), vehicle: Klucel (hydroxypropylcellulose) (HPC) 90 % of control

COC1(OC)C2(Cl)C=C(c3ccccc3)C1(Cl)C(Cl)=C2Cl (configuration not stated)
inactive: dose: 100.0 mg/kg/injection, schedule: Q01DX001 (ip), vehicle: carboxymethylcellulose (CMC) 92 % of control | dose: 200.0 mg/kg/injection, schedule: Q01DX001 (ip), vehicle: carboxymethylcellulose (CMC) 97 % of control | dose: 400.0 mg/kg/injection, schedule: Q01DX001 (ip), vehicle: carboxymethylcellulose (CMC) 94 % of control

CN(C)CCNCC(Cc1ccccc1)c1ccccc1 (configuration not stated)
inactive: dose: 25.0 mg/kg/injection, schedule: Q04DX002 (ip), vehicle: saline 92 % of control | dose: 50.0 mg/kg/injection, schedule: Q04DX002 (ip), vehicle: saline 92 % of control | dose: 100.0 mg/kg/injection, schedule: Q04DX002 (ip), vehicle: saline 100 % of control and 89 % of control

Nc1cc2c(c(Cl)c1Br)-c1ccccc1C2=O
inactive: [9] 96 % of control | [10] 90 % of control | [11] 94 % of control

CCN1CCN2C(=O)OCC2C1 (configuration not stated)
inactive: dose: 100.0 mg/kg/injection, schedule: Q04DX003 (sc), vehicle: olive oil, sesame oil, peanut oil 94 % of control | dose: 200.0 mg/kg/injection, schedule: Q04DX003 (sc), vehicle: olive oil, sesame oil, peanut oil 97 % of control | dose: 400.0 mg/kg/injection, schedule: Q04DX003 (sc), vehicle: olive oil, sesame oil, peanut oil 92 % of control

Br/C=C/C[N+]12CN3CN(CN(C3)C1)C2
inactive: dose: 12.5 mg/kg/injection, schedule: Q01DX009 (ip), vehicle: saline 95 % of control | dose: 12.5 mg/kg/injection, schedule: Q04DX003 (ip), vehicle: saline 101 % of control | dose: 25.0 mg/kg/injection, schedule: Q01DX009 (ip), vehicle: saline 101 % of control | dose: 25.0 mg/kg/injection, schedule: Q04DX003 (ip), vehicle: saline 102 % of control | dose: 50.0 mg/kg/injection, schedule: Q01DX009 (ip), vehicle: saline 96 % of control | dose: 50.0 mg/kg/injection, schedule: Q04DX003 (ip), vehicle: saline 98 % of control

CCCCCCCNC(=O)OCC
inactive: dose: 55.0 mg/kg/injection, schedule: Q01DX Z (ip), vehicle: methylcellulose (MC) 93 % of control | dose: 83.0 mg/kg/injection, schedule: Q01DX Z (ip), vehicle: methylcellulose (MC) 93 % of control | dose: 125.0 mg/kg/injection, schedule: Q01DX Z (ip), vehicle: methylcellulose (MC) 104 % of control

N=C(N)N=Nc1cc(O)c(NN=C(N)N)cc1O
inactive: dose: 7.5 mg/kg/injection, schedule: Q01DX Z (oral), vehicle: saline 95 % of control | dose: 15.0 mg/kg/injection, schedule: Q01DX Z (ip), vehicle: saline 98 % of control | dose: 15.0 mg/kg/injection, schedule: Q01DX Z (oral), vehicle: saline 96 % of control | dose: 30.0 mg/kg/injection, schedule: Q01DX Z (oral), vehicle: saline 98 % of control
